# Test results: US10202350B2, “MCT4 inhibitors for treating disease” (Vettore, LLC, priority 2015, dated 2019)
# What was measured:
# [1] = biological target: T1, MCT4 (Homo sapiens (Human), UniProt O15427); assay: MCT4-mediated lactate transport in MDA-MB-231 breast cancer cells; assay type: cell-based; conditions: MDA-MB-231 cells, native MCT4; 50 mM L-lactate
# Procedure, shortened: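 MDA-MB-231 cells loaded with BCECF-AM for 5 min at 37° C, then held in Tyrode's Solution, pH 7.4, with compound or 1% DMSO. After baseline, sodium L-lactate added to 50 mM final. Transport rate from exponential fit of the falling 490/440 BCECF ratio.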
# [2] = biological target: T1, MCT4; assay: MCT4-mediated lactate transport in NCI-H358 lung adenocarcinoma cells; assay type: cell-based; conditions: native MCT4, 50 mM L-lactate
# Method: Cells (˜7×10^6) are trypsinized (0.05% Trypsin-EDTA), pelleted (300 g, 5 min), and resuspended in 1 mL Tyrode's Solution, pH 7.4 (119 mM NaCl, 5 mM KCl, 25 mM HEPES, pH 7.4, 2 mM CaCl2, 2 mM MgCl2, 6 g/L glucose). 10 μL of a 30 mM DMSO stock of BCECF-AM ester (Life Technologies) is added and the cells are incubated at 37° C. for 5 min. The cells are pelleted (300 g, 5 min), washed once with 1 mL Tyrode's Solution, pH 7.4, re-pelleted (300 g, 5 min), and resuspended in 1 mL Tyrode's Solution, pH 7.4.
# 2.5 μL BCECF-loaded cells, along with either 10 μL DMSO or 100×compound in DMSO, are added to 937.5 μL of Tyrode's Solution in a quartz 1.0 mL cuvette (PerkinElmer, B0631116). Fluorescence measurements are performed on a PerkinElmer LS55 fluorescence spectrometer with dual excitation wavelengths achieved using a filter wheel (FL Winlab program: Fast Filter; Excitation 490/440; Emission 535). After establishing baseline BCECF fluorescence (around 10-20 s), 50 μL of 1 M sodium L-lactate (Sigma-Aldrich) is added to the cuvette (final concentration: 50 mM) and rapidly mixed. The time-dependent decrease in BCECF fluorescence (490/440 ratio) may be fit to an exponential decay curve (Prism GraphPad) to determine the rate of lactate transport.
# Assay 2: MCT4-Mediated Lactate Transport in NCI-H358 Lung Adenocarcinoma Cells.
# NCI-H358 lung adenocarcinoma cells may be used to measure MCT4 activity in cells with high native levels of MCT4 and low levels of MCT1 and are known to those with skill in the art. Preparation of BCECF-loaded cells and lactate transport activity may be determined as described for Assay 1.
# [3] = biological target: MCT1 (Homo sapiens (Human), UniProt P53985); assay: MCT1-mediated lactate transport in BT20 breast cancer cells; assay type: cell-based; conditions: native MCT1, 10 mM L-lactate
# Procedure, shortened: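 BT20 cells loaded with BCECF-AM (5 min, 37 °C) were placed in Tyrode's Solution, pH 7.4, with compound or DMSO in a cuvette. After baseline, 10 mM L-lactate was added, and the transport rate came from an exponential fit to the fall in BCECF fluorescence (490/440 ratio).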
# [4] = biological target: T1, MCT4; assay: Lactate transport in MCT4-expressing MDA-MB-453 breast cancer cells (BCECF); assay type: cell-based; conditions: MDA-MB-453 cells stably expressing MCT4; 50 mM L-lactate
# Method: Assay 1: Lactate Transport in MCT4-Expressing MDA-MB-453 Breast Cancer Cells. […] The following is an exemplary procedure for assaying MCT4 activity of the compounds of Formula (I). Preparing BCECF-Loaded Cells: […] The cells are pelleted (300 g, 5 min), washed once with 1 mL Tyrode's Solution, pH 7.4, re-pelleted (300 g, 5 min), and resuspended in 1 mL Tyrode's Solution, pH 7.4. Lactate Transport Assay: […] Fluorescence measurements are performed on a PerkinElmer LS55 fluorescence spectrometer with dual excitation wavelengths achieved using a filter wheel (FL Winlab program: Fast Filter; […] Emission 535). After establishing baseline BCECF fluorescence (around 10-20 s), 50 μL of 1 M sodium L-lactate (Sigma-Aldrich) is added to the cuvette (final concentration: 50 mM) and rapidly mixed.
# [5] = Metabolic stability in human liver microsomes; assay type: in vitro ADME; conditions: human liver microsomes 0.5 mg/mL, 2 μM compound; remaining percentage of parent at 60 min
# Method: (§1) Metabolic Stability Assays The following are assays that may be used to evaluate the metabolic stability of compounds of Formula (I) in human or mouse microsomes. 1. […] Two separated experiments were performed as follows. a) With NADPH: 10 μL of 20 mg/mL liver microsomes and 40 μL of 10 mM NADPH were added to the incubations. […] The final concentration of microsomes was 0.5 mg/mL. 3. The reaction was started with the addition of 4 μL of 200 μM control compound or test compound solutions. Verapamil was used as positive control in this study. The final concentration of test compound or control compound was 2 μM. 4. Aliquots of 50 μL were taken from the reaction solution at 0, 15, 30, 45 and 60 min. […] Samples were centrifuged at 3, 220 g for 40 minutes. Aliquot of 90 μL of the supernatant was mixed with 90 μL of ultra-pure H2O and then used for LC-MS/MS analysis. 5. Data analysis. All calculations were carried out using Microsoft Excel. Peak areas were determined from extracted ion chromatograms. The slope value, k, was determined by linear regression of the natural logarithm of the remaining percentage of the parent drug vs. incubation time curve. The in vitro half-life (in vitro t½) was determined from the slope value: in vitro t1/2=−(0.693)/k.
# [6] = Metabolic stability in mouse liver microsomes; assay type: in vitro ADME; conditions: mouse liver microsomes 0.5 mg/mL, 2 μM compound; remaining percentage of parent at 60 min
# Method: as §1
# Sequence of MCT1 (P53985 whole entry): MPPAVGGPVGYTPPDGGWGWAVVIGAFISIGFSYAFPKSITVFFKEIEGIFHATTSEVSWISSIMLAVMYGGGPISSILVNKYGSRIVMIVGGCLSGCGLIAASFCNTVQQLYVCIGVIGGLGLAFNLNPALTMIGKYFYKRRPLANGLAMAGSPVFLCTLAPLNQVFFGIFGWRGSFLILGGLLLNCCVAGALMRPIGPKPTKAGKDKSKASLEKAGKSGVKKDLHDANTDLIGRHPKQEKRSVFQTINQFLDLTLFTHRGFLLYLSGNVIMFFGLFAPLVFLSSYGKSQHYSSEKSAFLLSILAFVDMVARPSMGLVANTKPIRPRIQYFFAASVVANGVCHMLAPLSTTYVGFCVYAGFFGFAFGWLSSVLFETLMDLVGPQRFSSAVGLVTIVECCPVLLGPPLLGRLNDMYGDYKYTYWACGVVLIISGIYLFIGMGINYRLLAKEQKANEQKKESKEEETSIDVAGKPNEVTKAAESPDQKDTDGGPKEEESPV
# Sequence of MCT1 (P35613 140-385 partner): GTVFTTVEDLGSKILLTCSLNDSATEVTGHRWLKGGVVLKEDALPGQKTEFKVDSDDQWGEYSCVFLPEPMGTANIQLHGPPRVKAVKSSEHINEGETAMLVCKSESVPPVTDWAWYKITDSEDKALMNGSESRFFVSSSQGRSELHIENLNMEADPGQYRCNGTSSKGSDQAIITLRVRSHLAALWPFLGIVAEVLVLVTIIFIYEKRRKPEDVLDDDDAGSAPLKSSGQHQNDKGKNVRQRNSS
# T1 sequence (O15427 whole entry, looked up): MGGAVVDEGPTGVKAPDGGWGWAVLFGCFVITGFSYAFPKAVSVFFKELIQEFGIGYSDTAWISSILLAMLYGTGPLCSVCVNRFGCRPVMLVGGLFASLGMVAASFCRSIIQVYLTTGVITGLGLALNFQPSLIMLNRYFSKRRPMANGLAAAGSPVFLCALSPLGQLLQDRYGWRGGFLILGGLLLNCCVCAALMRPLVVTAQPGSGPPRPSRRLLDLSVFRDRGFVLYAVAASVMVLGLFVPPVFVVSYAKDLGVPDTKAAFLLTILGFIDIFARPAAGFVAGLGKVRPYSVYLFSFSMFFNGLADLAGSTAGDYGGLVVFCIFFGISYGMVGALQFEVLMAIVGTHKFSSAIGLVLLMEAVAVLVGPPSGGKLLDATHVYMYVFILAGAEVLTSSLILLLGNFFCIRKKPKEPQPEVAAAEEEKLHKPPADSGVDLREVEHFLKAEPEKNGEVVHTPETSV
# T1 sequence (P35613 whole entry partner, looked up): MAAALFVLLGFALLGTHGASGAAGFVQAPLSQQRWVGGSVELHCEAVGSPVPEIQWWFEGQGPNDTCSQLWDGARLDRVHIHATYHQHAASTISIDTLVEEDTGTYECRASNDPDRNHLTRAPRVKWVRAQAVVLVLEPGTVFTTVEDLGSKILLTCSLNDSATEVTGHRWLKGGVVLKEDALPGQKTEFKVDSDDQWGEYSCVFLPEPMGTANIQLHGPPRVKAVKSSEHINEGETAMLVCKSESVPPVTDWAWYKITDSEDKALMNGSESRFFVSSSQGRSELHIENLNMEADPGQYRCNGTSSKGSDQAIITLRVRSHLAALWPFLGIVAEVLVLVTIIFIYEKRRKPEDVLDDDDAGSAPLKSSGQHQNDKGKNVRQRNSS
IC50 [1] [nM],IC50 [2] [nM],IC50 ([3]; Table 2) [nM],IC50 ([3]; Table 3) [nM],IC50 [4] [nM],Human microsome % 60 min [5] [%],Mouse microsome % 60 min [6] [%],Compound
30,44,> 100000,> 100000,26,82,95,"COc1cccc(-c2cc(COC(C)(C)C(=O)O)nn2Cc2ccccc2Cl)c1 [Example 14, 2-[[1-[(2-Chlorophenyl)methyl]-5-(3-methoxyphenyl)pyrazol-3-yl]methoxy]-2-methyl-propanoic acid]"
5.4,–,–,10000,–,89,88,"CC(C)(OCc1cc(-c2cccc(OC3CC3)c2)n(Cc2ccccc2Cl)n1)C(=O)O [Example 39, 2-[[1-[(2-Chlorophenyl)methyl]-5-[3-(cyclopropoxy)phenyl]pyrazol-3-yl]methoxy]-2-methyl-propanoic acid]"
37,–,–,27000,–,59,95,"COc1cccc(-c2c(C)c(COC(C)(C)C(=O)O)nn2Cc2ccccc2Cl)c1 [Example 54, 2-({1-[(o-Chlorophenyl)methyl]-5-(m-methoxyphenyl)-4-methyl-1H-pyrazol-3-yl}methoxy)-2-methylpropionic acid]"
8.3,–,–,45000,–,82,84,"COc1ccc(-c2cc(COC(C)(C)C(=O)O)nn2Cc2ccccc2Cl)s1 [Example 64, 2-([1-[(2-Chlorophenyl)methyl]-5-(5-methoxythiophen-2-yl)-1H-pyrazol-3-yl]methoxy)-2-methylpropanoic Acid]"
8,–,–,13000,–,78,92,"COc1csc(-c2cc(COC(C)(C)C(=O)O)nn2Cc2ccccc2Cl)c1 [Example 65, 2-([1-[(2-Chlorophenyl)methyl]-5-(4-methoxythiophen-2-yl)-1H-pyrazol-3-yl]methoxy)-2-methylpropanoic Acid]"
7.8,–,–,45000,–,73,83,"COc1cc(-c2cc(COC(C)(C)C(=O)O)nn2Cc2ccccc2Cl)cs1 [Example 66, 2-([1-[(2-chlorophenyl)methyl]-5-(5-methoxythiophen-3-yl)-1H-pyrazol-3-yl]methoxy)-2-methylpropanoic Acid]"
9.1,–,–,26000,–,95,91,"CCC(C)(OCc1cc(-c2cccc(OC)c2)n(Cc2ccccc2Cl)n1)C(=O)O (stereo not shown) [Example 68, 2-([1-[(2-Chlorophenyl)methyl]-5-(3-methoxyphenyl)-1H-pyrazol-3-yl]methoxy)-2-methylbutanoic Acid]"
